Assay results taken from US8865734B2 (priority 2010, dated 2014).
In brackets after ≈: the same amount, converted by molar mass. Counter-ions that a name gives are not always drawn.

Tests used:
[1] = tested on: in vitro grown Mycobacteria (M. tuberculosis); experiment: QUM: Quantification of in vitro grown Mycobacteria (in vitro growth fluorescence assay); format: cell-based; details: Mycobacterium tuberculosis; MIC, 80% bacterial growth inhibition; in vitro growth; read-out: QUM
In short: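 Mycobacterium tuberculosis grown in vitro was quantified by fluorescence across compound dose responses. MIC is defined as the minimum concentration producing 80% growth inhibition.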

[2] = tested on: M. tuberculosis inside the host macrophage; experiment: QIM: Quantification of Intracellular Mycobacteria (intracellular growth assay, phenotypic cell-based); details: Mycobacterium tuberculosis; MIC, 80% bacterial growth inhibition; intracellular growth; read-out: QIM
In short: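 Phenotypic high-content assay measuring M. tuberculosis multiplication inside host macrophages, run as dose response. MIC is the minimum compound concentration giving 80% bacterial growth inhibition.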

What does the source list for `CCc1nc2ccc(Cl)cn2c1C(=O)NCC(C)C` [Compound 247, 6-Chloro-2-ethyl-N-isobutylimidazo[1,2-a]pyridine-3-carboxamide]?
MIC [1]: > 20 µM; melting point: 162.2 °C

For `CCc1nc2ccc(Cl)cn2c1C(=O)NCc1ccc(N2CCC(F)(F)CC2)cc1` [Compound 277, 6-chloro-N-(4-(4,4-difluoropiperidin-1-yl)benzyl)-2-ethylimidazo[1,2-a]pyridine-3-carboxamide], which MIC [1] is on record?
Its MIC is 1 to 20 µM (≈ 0.433 to 8.66 µg/mL).

What about the melting point of the same compound?
Its melting point is 194.2 °C.

Which MIC [1] does the source give for `CCc1nc2cc(Cl)ccn2c1C(=O)NCc1ccc(N2CCC(c3ccccc3)CC2)cc1` [Compound 283, 7-Chloro-2-ethyl-N-(4-(4-phenylpiperidin-1-yl)benzyl)imidazo[1,2-a]pyridine-3-carboxamide] here?
The MIC was < 1 µM.

What about the melting point of the same compound?
Its melting point is 164.5 °C.

Which MIC [1] does the source give for `CCc1nc2cc(Cl)ccn2c1C(=O)NCc1ccc(N2CCN3CCCC3C2)cc1` (stereo not drawn) [Compound 265, 7-Chloro-2-ethyl-N-(4-(hexahydropyrrolo[1,2-a]pyrazin-2(1H)-yl)benzyl)imidazo[1,2-a]pyridine-3-carboxamide] here?
Its MIC is > 20 µM.

And the melting point?
The melting point was 159.1 °C.

For `CCc1nc2cc(Cl)ccn2c1C(=O)NCc1ccc(N2CCC(Cc3ccccc3)CC2)cc1` [Compound 294, N-(4-(4-Benzylpiperidin-1-yl)benzyl)-7-chloro-2-ethylimidazo[1,2-a]pyridine-3-carboxamide], which MIC [1] is on record?
The MIC was 1 to 20 µM (≈ 0.487 to 9.74 µg/mL).

And the melting point?
Its melting point is 63.8 °C.

Which melting point does the source give for `CCc1nc2cc(Cl)ccn2c1C(=O)NCc1ccc(N2CCN(c3ccc(F)cc3)CC2)cc1` (as salt: hydrochloride) [Compound 177, 7-Chloro-2-ethyl-N-(4-(4-(4-fluorophenyl)piperazin-1-yl)benzyl)imidazo[1,2-a]pyridine-3-carboxamide trihydrochloride] here?
Its melting point is 204.4 to 206.9 °C.

Which MIC [1] does the source give for `CCc1nc2ccc(Cl)cn2c1C(=O)NCc1ccc(N2CCC(COc3ccc(OC(F)(F)F)cc3)CC2)cc1` [Compound 298, 6-chloro-2-ethyl-N-(4-(4-((4-(trifluoromethoxy)phenoxy)methyl)piperidin-1-yl)benzyl)imidazo[1,2-a]pyridine-3-carboxamide] here?
The MIC was < 1 µM.

And the melting point?
Its melting point is 183.6 °C.

With `CCc1nc2ccc(Cl)cn2c1C(=O)NCc1ccc(N2CCC(CO)CC2)cc1` [Compound 279, 6-Chloro-2-ethyl-N-(4-(4-(hydroxymethyl)piperidin-1-yl)benzyl)imidazo[1,2-a]pyridine-3-carboxamide] as the compound, how does the MIC [1] read?
Its MIC is > 20 µM.

What about the melting point of the same compound?
Its melting point is 161.1 °C.

Which MIC [1] does the source give for `CCc1nc2ccc(OC)cn2c1C(=O)NCc1ccc(N2CCN(c3ccc(F)cc3)CC2)cc1` [Compound 112, 2-Ethyl-N-(4-(4-(4-fluorophenyl)piperazin-1-yl)benzyl)-6-methoxyimidazo[1,2-a]pyridine-3-carboxamide] here?
Its MIC is < 1 µM.

What about the melting point of the same compound?
The melting point was 173.8 °C.

Which results are given for `CCc1nc2ccc(Cl)cn2c1C(=O)NCc1ccc(N2CCOCC2)c(Cl)c1` [Compound 349, 6-Chloro-N-(3-chloro-4-morpholinobenzyl)-2-ethylimidazo[1,2-a]pyridine-3-carboxamide]?
MIC [1]: < 1 µM; melting point: 175.5 °C

For `CCc1nc2ccc(F)cn2c1C(=O)NCc1ccc(Oc2ccc(OC(F)(F)F)cc2)cc1` [Compound 253, 2-Ethyl-6-fluoro-N-(4-(4-(trifluoromethoxy)phenoxy)benzyl)imidazo[1,2-a]pyridine-3-carboxamide], which MIC [1] is on record?
Its MIC is < 1 µM.

And the melting point?
The melting point was 133.4 °C.

Which MIC [1] does the source give for `CCc1nc2cc(Cl)ccn2c1C(=O)NCc1ccc(N2CCC(Oc3ccc(C(F)(F)F)cc3)CC2)cc1` [Compound 165, 7-Chloro-2-ethyl-N-(4-(4-(4-(trifluoromethyl)phenoxy)piperidin-1-yl)benzyl) imidazo[1,2-a]pyridine-3-carboxamide] here?
Its MIC is < 1 µM.

What about the MIC [2] of the same compound?
The MIC was < 1 µM.

Which MIC [1] does the source give for `CCc1nc2ccc(Cl)cn2c1C(=O)NCc1ccc(Cl)cc1` [Compound 70, 6-Chloro-N-(4-chlorobenzyl)-2-ethylimidazo[1,2-a]pyridine-3-carboxamide] here?
Its MIC is < 1 µM.

What about the MIC [2] of the same compound?
The MIC was < 1 µM.

What does the source list for `CCc1nc2cc(Cl)ccn2c1C(=O)NCc1ccc(OCc2ccc(F)cc2)cc1` [Compound 203, 7-Chloro-2-ethyl-N-(4-(4-fluorobenzyloxy)benzyl)imidazo[1,2-a]pyridine-3-carboxamide]?
MIC [1]: 1 to 20 µM (≈ 0.438 to 8.76 µg/mL); MIC [2]: 1 to 20 µM (≈ 0.438 to 8.76 µg/mL)

Which MIC [1] does the source give for `CCc1nc2ccc(C)cn2c1C(=O)NCc1ccc(C(C)(C)C)cc1` [Compound 64, N-(4-tert-Butylbenzyl)-2-ethyl-6-methylimidazo[1,2-a]pyridine-3-carboxamide] here?
Its MIC is < 1 µM.

What about the MIC [2] of the same compound?
Its MIC is < 1 µM.

For `CCc1nc2ccc(Cl)cn2c1C(=O)NCc1ccc(N2CCC(COC(C)C)CC2)cc1` [Compound 291, 6-Chloro-2-ethyl-N-(4-(4-(isopropoxymethyl)piperidin-1-yl)benzyl)imidazo[1,2-a]pyridine-3-carboxamide], which MIC [1] is on record?
The MIC was < 1 µM.

What about the MIC [2] of the same compound?
The MIC was < 1 µM.

What does the source list for `Cc1nc2ccc(Cl)cn2c1C(=O)NCc1ccc(-c2ccccc2)cc1` [Compound 44]?
MIC [1]: < 1 µM; MIC [2]: < 1 µM

With `Cc1ccc2nc(C)c(C(=O)NCc3ccccc3)n2c1` [Compound 32, N-Benzyl-2,6-dimethylimidazo[1,2-a]pyridine-3-carboxamide] as the compound, how does the MIC [1] read?
The MIC was < 1 µM.

What about the MIC [2] of the same compound?
The MIC was < 1 µM.

For `CCc1nc2ccc(Cl)cn2c1C(=O)NCc1ccc(-c2ccccc2C#N)cc1` [Compound 125, 6-Chloro-N-((2′-cyanobiphenyl-4-yl)methyl)-2-ethylimidazo[1,2-a]pyridine-3-carboxamide], which MIC [1] is on record?
The MIC was < 1 µM.

What about the MIC [2] of the same compound?
The MIC was 1 to 20 µM (≈ 0.415 to 8.3 µg/mL).

For `CCc1nc2cc(Cl)ccn2c1C(=O)NCc1ccc(N2CCCC2)cc1` [Compound 212, 7-Chloro-2-ethyl-N-(4-(pyrrolidin-1-yl)benzyl)imidazo[1,2-a]pyridine-3-carboxamide], which MIC [1] is on record?
The MIC was < 1 µM.

What about the MIC [2] of the same compound?
The MIC was < 1 µM.

Which results are given for `CCCCCNc1ccc(CNC(=O)c2c(CC)nc3cc(Cl)ccn23)cc1` [Compound 107, 7-Chloro-2-ethyl-N-(4-(pentylamino)benzyl)imidazo[1,2-a]pyridine-3-carboxamide]?
MIC [1]: < 1 µM; MIC [2]: < 1 µM

With `CCOC(=O)c1c(C)nc2ccc(-c3ccccc3)cn12` [Compound 4, Ethyl 2-methyl-6-phenylimidazo[1,2-a]pyridine-3-carboxylate] as the compound, how does the MIC [1] read?
The MIC was > 20 µM.

And the MIC [2]?
Its MIC is > 20 µM.

With `CCc1nc2ccc([N+](=O)[O-])cn2c1C(=O)NCc1ccc(OC(F)(F)F)cc1` [Compound 149, 2-Ethyl-6-nitro-N-(4-(trifluoromethoxy)benzyl)imidazo[1,2-a]pyridine-3-carboxamide] as the compound, how does the MIC [1] read?
Its MIC is > 20 µM.

What about the MIC [2] of the same compound?
The MIC was > 20 µM.

With `Cc1nc2ccccn2c1C(=O)NCC1CCNCC1` [Compound 20, 2-Methyl-N-(piperidin-4-ylmethyl)imidazo[1,2-a]pyridine-3-carboxamide] as the compound, how does the MIC [1] read?
Its MIC is > 20 µM.

And the MIC [2]?
Its MIC is > 20 µM.

What does the source list for `CCc1nc2ccccn2c1C(=O)NCc1ccc(Oc2ccc(OC(F)(F)F)cc2)cc1` [Compound 192, 2-Ethyl-N-(4-(4-(trifluoromethoxy)phenoxy)benzyl)imidazo[1,2-a]pyridine-3-carboxamide]?
MIC [1]: < 1 µM; MIC [2]: < 1 µM

What does the source list for `CCc1nc2ccccn2c1C(=O)NCc1ccc(OCC(C)C)cc1` [Compound 61, 2-Ethyl-N-(4-isobutoxybenzyl)imidazo[1,2-a]pyridine-3-carboxamide]?
MIC [1]: < 1 µM; MIC [2]: < 1 µM

Which results are given for `CCc1nc2ccccn2c1C(=O)NCc1ccc(OC(C)C)cc1` [Compound 60, 2-Ethyl-N-(4-isopropoxybenzyl)imidazo[1,2-a]pyridine-3-carboxamide]?
MIC [1]: < 1 µM; MIC [2]: < 1 µM

Which MIC [1] does the source give for `CCc1nc2ccc(C(F)(F)F)cn2c1C(=O)NCc1ccc(N2CCC(Oc3ccc(OC(F)(F)F)cc3)CC2)cc1` [Compound 168, 2-Ethyl-N-(4-(4-(4-(trifluoromethoxy)phenoxy)piperidin-1-yl)benzyl)-6-(trifluoromethyl)imidazo[1,2-a]pyridine-3-carboxamide] here?
The MIC was 1 to 20 µM (≈ 0.607 to 12.1 µg/mL).

And the MIC [2]?
Its MIC is 1 to 20 µM (≈ 0.607 to 12.1 µg/mL).

With `CCc1nc2cc(Cl)ccn2c1C(=O)NCc1ccc2[nH]c(CN3CCOCC3)nc2c1` [Compound 206, 7-Chloro-2-ethyl-N-((2-(morpholinomethyl)-1H-benzo[d]imidazol-5-yl)methyl) imidazo[1,2-a]pyridine-3-carboxamide] as the compound, how does the MIC [1] read?
The MIC was > 20 µM.

And the MIC [2]?
The MIC was > 20 µM.

Which MIC [1] does the source give for `CCc1nc2ccc(F)cn2c1C(=O)NCc1ccc(OCc2ccc(OC(F)(F)F)cc2)cc1` [Compound 258, 2-Ethyl-6-fluoro-N-(4-(4-(trifluoromethoxy)benzyloxy)benzyl)imidazo[1,2-a]pyridine-3-carboxamide] here?
Its MIC is < 1 µM.

And the MIC [2]?
Its MIC is < 1 µM.

What does the source list for `CCc1nc2cc(Cl)ccn2c1C(=O)NCc1ccc2oc(-c3ccc(OC(F)(F)F)cc3)nc2c1` [Compound 208, 7-Chloro-2-ethyl-N-((2-(4-(trifluoromethoxy)phenyl)benzo[d]oxazol-5-yl)methyl)imidazo[1,2-a]pyridine-3-carboxamide]?
MIC [1]: < 1 µM; MIC [2]: < 1 µM

With `Cc1nc2c(C)cccn2c1C(=O)NCc1ccccc1` [Compound 30, N-Benzyl-2,8-dimethylimidazo[1,2-a]pyridine-3-carboxamide] as the compound, how does the MIC [1] read?
Its MIC is > 20 µM.

What about the MIC [2] of the same compound?
Its MIC is > 20 µM.

With `CCc1nc2cc(Cl)ccn2c1C(=O)NCc1ccc(-c2ccc(C(F)(F)F)cc2)cc1` [Compound 120, 7-Chloro-2-ethyl-N-((4′-(trifluoromethyl)biphenyl-4-yl)methyl)imidazo[1,2-a]pyridine-3-carboxamide] as the compound, how does the MIC [1] read?
The MIC was < 1 µM.

And the MIC [2]?
Its MIC is < 1 µM.

What does the source list for `Cc1nc2ccccn2c1C(=O)Nc1ccc(Oc2ccccc2)cc1` [Compound 6, 2-Methyl-N-(4-phenoxyphenyl)imidazo[1,2-a]pyridine-3-carboxamide]?
MIC [1]: > 20 µM; MIC [2]: > 20 µM

With `CCc1nc2cc(Cl)ccn2c1C(=O)NCc1ccc(-c2ccc(F)cc2)cc1` [Compound 116, 7-Chloro-2-ethyl-N-((4′-fluorobiphenyl-4-yl)methyl)imidazo[1,2-a]pyridine-3-carboxamide] as the compound, how does the MIC [1] read?
The MIC was < 1 µM.

And the MIC [2]?
The MIC was < 1 µM.
